Results: ChEMBL document CHEMBL1909046, “DrugMatrix in vitro pharmacology data”

Legend:
[1] = target: Cannabinoid receptor 1 (Homo sapiens, UniProt P21554); format: cell membranes, Chem-1, Membrane; conditions: chem-1; also: in other assays of this panel Not Active means under 50% inhibition at 10 µM
[2] = DRUGMATRIX: Sigma2 radioligand binding (ligand: [3H] Ifenprodil); format: cell membranes, Rattus norvegicus, Wistar, Brain, Membrane; conditions: Not Active = under 50% inhibition at 10 µM
[3] = target: Adenosine receptor A2a (Homo sapiens, UniProt P29274); assay: DRUGMATRIX: Adenosine A2A radioligand binding (ligand: […]); format: cell membranes, HEK293, Membrane; conditions: Not Active = under 50% inhibition at 10 µM; for Ki: read-out: Ki
Sequence of Adenosine receptor A2a (P29274 whole entry): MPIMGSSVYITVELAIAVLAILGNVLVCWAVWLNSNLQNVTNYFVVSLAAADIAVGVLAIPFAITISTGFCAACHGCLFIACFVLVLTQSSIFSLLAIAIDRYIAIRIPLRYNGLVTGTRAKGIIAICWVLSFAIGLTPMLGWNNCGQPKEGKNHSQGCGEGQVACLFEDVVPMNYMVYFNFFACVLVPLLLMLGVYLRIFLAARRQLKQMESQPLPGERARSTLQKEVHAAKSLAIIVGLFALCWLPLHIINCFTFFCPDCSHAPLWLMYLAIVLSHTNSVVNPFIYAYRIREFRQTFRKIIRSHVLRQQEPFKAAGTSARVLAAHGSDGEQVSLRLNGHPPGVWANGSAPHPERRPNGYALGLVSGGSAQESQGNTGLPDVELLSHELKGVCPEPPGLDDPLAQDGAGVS

[4] = target: T1, Polyunsaturated fatty acid lipoxygenase ALOX15 (Oryctolagus cuniculus, UniProt P12530); assay: biochemical; format: tissue-based, Reticulocytes; conditions: reticulocytes;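 also: inhibition of 15-lipoxygenase enzyme activity measured with linoleic acid as the substrate; in other assays of this panel Not Active means under 50% inhibition at 10 µM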
T1 sequence (P12530 whole entry): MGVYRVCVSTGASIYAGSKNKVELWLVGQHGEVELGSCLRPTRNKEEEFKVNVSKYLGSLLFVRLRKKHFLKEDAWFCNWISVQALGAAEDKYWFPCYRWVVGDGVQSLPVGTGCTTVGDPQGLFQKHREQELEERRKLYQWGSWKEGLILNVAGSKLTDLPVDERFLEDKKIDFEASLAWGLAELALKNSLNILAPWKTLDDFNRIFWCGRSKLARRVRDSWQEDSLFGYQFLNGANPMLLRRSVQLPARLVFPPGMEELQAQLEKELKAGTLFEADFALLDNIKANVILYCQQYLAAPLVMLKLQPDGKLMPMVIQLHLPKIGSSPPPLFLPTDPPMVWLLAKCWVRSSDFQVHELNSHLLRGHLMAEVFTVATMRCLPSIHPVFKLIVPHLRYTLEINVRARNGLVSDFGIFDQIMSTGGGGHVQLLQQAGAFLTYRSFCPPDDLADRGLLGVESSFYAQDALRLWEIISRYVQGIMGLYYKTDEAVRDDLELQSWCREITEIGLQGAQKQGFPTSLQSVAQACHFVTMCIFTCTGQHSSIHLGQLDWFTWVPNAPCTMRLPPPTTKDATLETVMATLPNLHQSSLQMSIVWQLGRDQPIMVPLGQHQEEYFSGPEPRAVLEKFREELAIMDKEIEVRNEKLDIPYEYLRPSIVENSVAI

[5] = DRUGMATRIX: Glutamate, AMPA radioligand binding (ligand: [3H] AMPA); format: cell membranes, Rattus norvegicus, Wistar, Cerebral cortex, Membrane; conditions: Not Active = under 50% inhibition at 10 µM

Sequence of Cannabinoid receptor 1 (P21554 whole entry): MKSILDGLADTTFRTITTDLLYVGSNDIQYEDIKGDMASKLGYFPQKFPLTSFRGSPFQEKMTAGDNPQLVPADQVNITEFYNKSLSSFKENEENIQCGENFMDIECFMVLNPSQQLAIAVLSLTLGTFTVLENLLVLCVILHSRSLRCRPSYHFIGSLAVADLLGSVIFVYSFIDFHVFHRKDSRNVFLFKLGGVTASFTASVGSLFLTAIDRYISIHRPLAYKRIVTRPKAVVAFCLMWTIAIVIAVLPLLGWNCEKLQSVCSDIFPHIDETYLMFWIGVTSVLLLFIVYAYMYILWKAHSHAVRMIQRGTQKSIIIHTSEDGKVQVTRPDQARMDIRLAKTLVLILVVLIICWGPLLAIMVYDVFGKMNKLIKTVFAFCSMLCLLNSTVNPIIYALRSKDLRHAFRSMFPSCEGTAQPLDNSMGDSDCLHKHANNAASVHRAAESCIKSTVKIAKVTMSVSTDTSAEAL

Compound	IC50 [1]	IC50 ([2]; read-out: IC50) [nM]	Ki ([2]; read-out: Ki) [nM]	IC50 ([3]; hek293)	IC50 [4]	IC50 [5]	Ki [5]	IC50 [2]	Ki [2]	IC50 ([3]; read-out: IC50) [nM]	Ki [3] [nM]
O=C1CC2(CCCC2)CC(=O)N1CCCCN1CCN(c2ncccn2)CC1 [BUSPIRONE]	Not Active	3380	2080	Not Active	Not Active	Not Active	Not Active	–	–	–	–
O=NN(CCCl)C(=O)NCCCl [CARMUSTINE]	Not Active	–	–	Not Active	Not Active	Not Active	Not Active	Not Active	Not Active	–	–
CC1=C(C(=O)O)N2C(=O)[C@@H](NC(=O)[C@H](N)c3ccccc3)[C@H]2SC1 [CEPHALEXIN ANHYDROUS]	Not Active	–	–	Not Active	Not Active	Not Active	Not Active	Not Active	Not Active	–	–
O=C(N[C@H](CO)[C@H](O)c1ccc([N+](=O)[O-])cc1)C(Cl)Cl [CHLORAMPHENICOL]	Not Active	–	–	Not Active	Not Active	Not Active	Not Active	Not Active	Not Active	–	–
CCOC(=O)C(C)(C)Oc1ccc(Cl)cc1 [CLOFIBRATE]	Not Active	–	–	Not Active	Not Active	Not Active	Not Active	Not Active	Not Active	–	–
C[C@@H]1C[C@@H]([C@H](O)CC2CC(=O)NC(=O)C2)C(=O)[C@@H](C)C1 [CYCLOHEXIMIDE]	Not Active	–	–	Not Active	Not Active	Not Active	Not Active	Not Active	Not Active	–	–
C/C=C/C[C@@H](C)[C@@H](O)[C@H]1C(=O)N[C@@H](CC)C(=O)N(C)CC(=O)N(C)[C@@H](CC(C)C)C(=O)N[C@@H](C(C)C)C(=O)N(C)[C@@H](CC(C)C)C(=O)N[C@@H](C)C(=O)N[C@H](C)C(=O)N(C)[C@@H](CC(C)C)C(=O)N(C)[C@@H](CC(C)C)C(=O)N(C)[C@@H](C(C)C)C(=O)N1C [CYCLOSPORINE]	Not Active	–	–	Not Active	Not Active	Not Active	Not Active	Not Active	Not Active	–	–
CN(C)c1ccc(C(=C2C=CC(=[N+](C)C)C=C2)c2ccc(N(C)C)cc2)cc1.[Cl-] [GENTIAN VIOLET]	Not Active	–	–	–	Not Active	Not Active	Not Active	Not Active	Not Active	3370	1890
NC(=O)NO [HYDROXYUREA]	Not Active	–	–	Not Active	Not Active	Not Active	Not Active	Not Active	Not Active	–	–
CC(C)(C(=O)c1cccnc1)c1cccnc1 [METYRAPONE]	Not Active	–	–	Not Active	Not Active	Not Active	Not Active	Not Active	Not Active	–	–
COc1ccc2cc([C@H](C)C(=O)O)ccc2c1 [NAPROXEN]	Not Active	–	–	Not Active	Not Active	Not Active	Not Active	Not Active	Not Active	–	–
COC(=O)C1=C(C)NC(C)=C(C(=O)OCC(C)C)C1c1ccccc1[N+](=O)[O-] (stereo not given) [NISOLDIPINE]	Not Active	–	–	–	Not Active	Not Active	Not Active	Not Active	Not Active	4060	2280
CCn1cc(C(=O)O)c(=O)c2cc(F)c(N3CCN(C)CC3)cc21 [PEFLOXACIN]	Not Active	–	–	Not Active	Not Active	Not Active	Not Active	Not Active	Not Active	–	–
CCC1=C[C@@H]2CN(C1)Cc1c([nH]c3ccccc13)[C@@](C(=O)OC)(c1cc3c(cc1OC)N(C)[C@H]1[C@@](O)(C(=O)OC)[C@H](OC(C)=O)[C@]4(CC)C=CCN5CC[C@]31[C@@H]54)C2 [VINORELBINE]	Not Active	–	–	Not Active	Not Active	Not Active	Not Active	Not Active	Not Active	–	–
